Experiments:
[1] = test system: intraplantar carrageenan-induced paw withdrawal latency; test: intraplantar carrageenan-induced paw withdrawal latency in the rat; assay type: in vivo
Experimental: More particularly, FIG. 1 is a graph showing the effect of (−) threo-ifenprodil when given intranasally or intraperitoneally at 10 and 30 mg/kg on the % change of pressure-induced paw withdrawal latency on the intraplantar carrageenan administered paw in the rat (250 g).
FIG. 2 is a graph showing the effect of (−) threo-ifenprodil when given intravenously at 0.1 to 3 mg/kg on the % change of pressure-induced paw withdrawal latency on the intraplantar carrageenan administered paw in the rat.

[2] = test system: alpha-1 adrenergic receptor; settings: Chenard et al., 1991; cited from earlier work

CC(C(O)c1ccc(O)cc1)N1CCC(Cc2ccccc2)CC1 (racemic) [erythro racemate of ifenprodil]
intranasal route compared with intraperitoneal route ([1]; FIG. 1): at least equivalent if not superior to the intraperitoneal route | analgesic effect on pressure-induced paw withdrawal latency ([1]; intranasal, 2.5 mg/rat and 7.5 mg/rat, FIG. 1): markedly analgesic | analgesic effect on pressure-induced paw withdrawal latency ([1]; intraperitoneal, 10 mg/kg and 30 mg/kg, FIG. 1): markedly analgesic

CC(C(O)c1ccc(O)cc1)N1CCC(Cc2ccccc2)CC1 (single isomer, unassigned; (-)) [(−) Threo-ifenprodil]
efficacy on pressure-induced paw withdrawal latency ([1]; intravenous, 0.1, 0.3, 1 and 3 mg/kg, FIG. 2): excellent efficacy

CC(C(O)c1ccc(O)cc1)N1CCC(Cc2ccccc2)CC1 (centres unmarked) [Ifenprodil, 2-(4-benzylpiperidino)-1-(4-hydroxyphenyl)-1-propanol]
alpha-1 adrenergic receptor binding properties [2]: potent

From patent US20070043111A1, “Use of ifenprodril in the treatment of pain” (priority 2003, published 2007)
